Values after ≈ are worked out from the molar mass of the structure shown. Where two headings read alike, the source gives them in different places.
Legend:
physchem = experiment: physchem
Method: (§1) The container bottoms were then attached to the bottom of a small jewelry ultrasonic cleaner bath using a water-resistant double-stick tape. Just enough water was added to the bath to immerse the weigh boats to about ⅓rd height. Sonication was performed for 15 minutes in steps of 5 minutes. The liquids were transferred to centrifuge tubes and centrifuged twice for 30 min. in a bench top centrifuge to pellet out undissolved dye. The supernatants were transferred to clean tubes and centrifuged again, to remove entrained solids. Suspensions of same amounts of dyes in same amount of distilled water as the amount of the polymer solution were treated in the same fashion, as controls. The resulting solutions were spotted (25 ul) on TLC plates to form circles from the drops. The intensities of the spots were compared with spots made from standards of dye solutions made in ethanol or ethanol/water to determine approximate concentrations; the spots are shown in FIG. 1. The solubilities of the dyes in water were determined by dissolving appropriate amount of the dye in […] deionized water (unbuffered) at room temperature, and adding (i.e. titrating with) further water as necessary to obtain saturated solutions.

[1] = Method: as §1

concentration (solubility) of dye in H2O (physchem) [µg/mL]	concentration of dye in 50 mg/ml polymer [1]	solubility (physchem; water, thermodynamic from solid) [µg/mL]	concentration of dye in 50 mg/ml polymer ([1]; 15 min)	Structure (SMILES)
0	approximately 0.2 mg/ml	–	–	Cc1ccccc1/N=N/c1ccc(/N=N/c2c(O)ccc3ccccc23)c(C)c1 [Sudan IV]
–	–	10 (≈ 24.9 µM)	approximately 5 mg/ml	O=C1OC2(c3cc(Cl)c(O)cc3Oc3cc(O)c(Cl)cc32)c2ccccc21 [Dichlorofluorescein, dichlorofluorescein]
